Source: PubChem BioAssay AID1918996 (Molecular Pharmacology Branch, DTP, NCI, 2023)
“And” between values parts separate entries of the source, which are not always exact repeats. Equal entries are not always repeated.

Test system: 349418-098-R-PDC complex spheroid growth
Test: Anticancer human tumor 349418-098-R-PDC patient-derived lung adenocarcinoma cell line growth inhibition [AhR]
Conditions: for viability, T/C: stronger effect = lower value
Text: Multicellular complex tumor spheroid response to aryl hydrocarbon receptor antagonists in combination with a variety of drugs and investigational agents in selected tumor cell lines
The current study was undertaken to assess response to aryl hydrocarbon receptor antagonists in combination with standard-of-care drugs and investigational agents in solid tumor complex spheroid models. Complex spheroids include a stromal component modeled by human endothelial cells (HUVEC) and fibroblasts modeled by human mesenchymal stem cells (MSCs). The concentration ranges selected for each drug and investigational agent were based upon clinically achievable concentrations if the clinical Cmax of the agent was known.
Compounds. The drugs and investigational agents: BAY 2416964 (NSC825713), GNF351 (NSC835774), CH-223191 (NSC835775), CPI-455 (NSC825282), aza-TdCyd (NSC777586), decitabine (NSC127716), belinostat (NSC758774), entinostat (NSC756642), pevonedistat (NSC761192), tazemetostat (NSC777109), talazoparib (NSC765396), olaparib (NSC753686), selinexor (NSC780203), nedisertib (M3814, NSC802822), bortezomib (NSC756655), venetoclax (NSC766270), doxorubicin (NSC123127), elimusertib (BAY189344, NSC800525), ceralasertib (AZD6738, NSC777638), TAK-243 (NSC785004), alisertib (NSC759677), etoposide (NSC141540), topotecan (NSC609699), eribulin (NSC707389), gemcitabine (NSC613327), carboplatin (NSC241240), cisplatin (NSC119875), and SN-38 (NSC673596) were obtained from the National Cancer Institute (NCI) Developmental Therapeutics Program Chemical Repository (32). The FDA-approved anticancer drug set is available from the Developmental Therapeutics Program at https://dtp.cancer.gov/organization/dscb/obtaining/available plates.htm. […] The stock solutions were prepared in dimethyl sulfoxide (DMSO, Sigma-Aldrich, St. Louis, MO, cat. D2650), except for the platinum compounds which were prepared in saline (Quality Biological, Gaithersburg, MD, cat. 114-055-101), at 800-fold the tested concentration and stored at -70 degrees C prior to their use. All drugs and investigational agents were tested over a range starting from a high concentration at or near the clinical Cmax and decreasing in half-log increments. If the clinical Cmax for an agent had not been determined, the highest concentration tested was 10 microM (Table 1).
Cell Culture. All cells were maintained in an incubator at 37 degrees C and 5% CO2 with 95% humidity. The PDC lines were cultured according to standard operating procedures established by the NCI PDMR (https://pdmr.cancer.gov). Briefly, all PDCs were thawed and cultured in Matrigel-coated flasks prepared with a working solution of 1X Ham's F-12 nutrient mix, without supplementation (Invitrogen, Waltham, MA, cat. 11765054), 100 U/mL penicillin-streptomycin (Invitrogen, cat. 15140122), and 2.5% Matrigel (Corning Inc., Corning, NY, cat. 354248) for the first three passages. All PDCs were cultured in complete DMEM/F-12 media containing advanced DMEM/F-12 (Invitrogen, cat. 12634028), 4.9% defined fetal bovine serum, heat inactivated (HyClone Laboratories Inc., Logan, UT, cat. SH30070.03HI), 389 ng/mL hydrocortisone (Sigma-Aldrich, cat. H4001), 9.7 ng/mL human EGF recombinant protein (Invitrogen, cat. PHG0313), 23.4 microg/mL adenine (Sigma-Aldrich, cat. A2786), 97.3 U/mL penicillin-streptomycin (Invitrogen, cat. 15140122), 1.9 mM L-glutamine (Invitrogen, cat. 25030081), and 9.7 microM Y-27632 dihydrochloride (Tocris Bioscience, Bristol, United Kingdom, cat. 1254). The PDCs were cultured in complete DMEM/F12 media without 10 microM Y-27632 dihydrochloride for at least two passages prior to the screen. The established cell lines NCI-H1341 and […] were cultured in DMEM/F-12, HEPES (Invitrogen, cat. 11330032), 5% defined fetal bovine serum (HyClone Laboratories Inc., cat. SH30070.03), ITS premix universal culture supplement [insulin (5 microg/mL), transferrin (5 microg/mL), and selenious acid (5 ng/mL)] […]

[1] = curve of first compound, second compound 0.1 µM
[2] = curve of first compound, second compound 0.316 µM
[3] = curve of first compound, second compound 1 µM
[4] = curve of first compound, second compound 3.16 µM
[5] = curve of first compound, second compound 10 µM
[6] = second compound 0.1 µM, first compound 0.0316 µM
[7] = second compound 0.1 µM, first compound 0.1 µM
[8] = second compound 0.1 µM, first compound 0.316 µM
[9] = second compound 0.1 µM, first compound 1 µM
[10] = second compound 0.1 µM, first compound 3.16 µM
[11] = second compound 0.1 µM, first compound 10 µM
[12] = second compound 0.316 µM, first compound 0.0316 µM
[13] = second compound 0.316 µM, first compound 0.1 µM
[14] = second compound 0.316 µM, first compound 0.316 µM
[15] = second compound 0.316 µM, first compound 1 µM
[16] = second compound 0.316 µM, first compound 3.16 µM
[17] = second compound 0.316 µM, first compound 10 µM
[18] = second compound 1 µM, first compound 0.0316 µM
[19] = second compound 1 µM, first compound 0.1 µM
[20] = second compound 1 µM, first compound 0.316 µM
[21] = second compound 1 µM, first compound 1 µM
[22] = second compound 1 µM, first compound 3.16 µM
[23] = second compound 1 µM, first compound 10 µM
[24] = second compound 3.16 µM, first compound 0.0316 µM
[25] = second compound 3.16 µM, first compound 0.1 µM
[26] = second compound 3.16 µM, first compound 0.316 µM
[27] = second compound 3.16 µM, first compound 1 µM
[28] = second compound 3.16 µM, first compound 3.16 µM
[29] = second compound 3.16 µM, first compound 10 µM
[30] = second compound 10 µM, first compound 0.0316 µM
[31] = second compound 10 µM, first compound 0.1 µM
[32] = second compound 10 µM, first compound 0.316 µM
[33] = second compound 10 µM, first compound 1 µM
[34] = second compound 10 µM, first compound 3.16 µM
[35] = second compound 10 µM, first compound 10 µM
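Further: spheroids exposed to agents for seven days before luminescence viability read.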
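Wherever viability, T/C is given: spheroids also contain HUVEC endothelial cells and human MSC stroma.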

SMILES | IC50 [1] | IC50 [2] | IC50 [3] | IC50 [4] | IC50 [5] | viability, T/C [6] | viability, T/C [7] | viability, T/C [8] | viability, T/C [9] | viability, T/C [10] | viability, T/C [11] | viability, T/C [12] | viability, T/C [13] | viability, T/C [14] | viability, T/C [15] | viability, T/C [16] | viability, T/C [17] | viability, T/C [18] | viability, T/C [19] | viability, T/C [20] | other results
Nc1ccccc1NC(=O)c1ccc(CNC(=O)OCc2cccnc2)cc1 + Cc1ccccc1N=Nc1ccc(NC(=O)c2ccnn2C)c(C)c1 | 1.26 µM | 0.999 µM | 0.992 µM | 1.01 µM | 0.919 µM | 104% | 97.7% | 75.7% | 64.6% | 19.4% | 5.78% | 84.6% | 85.3% | 72% | 52.1% | 17.2% | 5.9% | 97.7% | 76% | 87.2% | viability, T/C [21]: 47.6%; viability, T/C [22]: 18.5%; viability, T/C [23]: 6.58%; viability, T/C [24]: 86.5%; viability, T/C [25]: 82.5%; viability, T/C [26]: 76.5%; viability, T/C [27]: 50.1%; viability, T/C [28]: 18.5%; viability, T/C [29]: 5.98%; viability, T/C [30]: 66.4%; viability, T/C [31]: 60.9%; viability, T/C [32]: 68.1%; viability, T/C [33]: 48%; viability, T/C [34]: 17%; viability, T/C [35]: 8.83%
O=C(c1cc(Cc2n[nH]c(=O)c3ccccc23)ccc1F)N1CCN(C(=O)C2CC2)CC1 + Cc1ccccc1N=Nc1ccc(NC(=O)c2ccnn2C)c(C)c1 | 2.02 µM | 6.2 µM | 2.81 µM | 0.661 µM | 1.43 µM | 81.3% | 73.2% | 91.4% | 62.1% | 44.9% | 39.6% | 98% | 89% | 108% | 64% | 66.3% | 41.4% | 106% | 82.4% | 69.7% | viability, T/C [21]: 62.8%; viability, T/C [22]: 49.4%; viability, T/C [23]: 39.9%; viability, T/C [24]: 76.9%; viability, T/C [25]: 69.9%; viability, T/C [26]: 63.4%; viability, T/C [27]: 41.8%; viability, T/C [28]: 41.3%; viability, T/C [29]: 43%; viability, T/C [30]: 56.4%; viability, T/C [31]: 53.1%; viability, T/C [32]: 50.9%; viability, T/C [33]: 60.1%; viability, T/C [34]: 38.8%; viability, T/C [35]: 31.4%
Cc1cncc(-c2nc(NCCc3c[nH]c4ccccc34)c3ncn(C(C)C)c3n2)c1 | – | – | – | – | – | – | – | – | – | – | – | – | – | – | – | – | – | – | – | – | viability, T/C (compound 0.1 µM): 97.7% [middle of 20 runs]; viability, T/C (compound 0.316 µM): 93.4% [middle of 20 runs]; viability, T/C (compound 10 µM): 2.04% [middle of 19 runs]
COc1cc(Nc2ncc3c(n2)-c2ccc(Cl)cc2C(c2c(F)cccc2OC)=NC3)ccc1C(=O)O | – | – | – | – | – | – | – | – | – | – | – | – | – | – | – | – | – | – | – | – | viability, T/C (compound 0.0316 µM): 71.2% and 55.7% and 53.1%; viability, T/C (compound 0.1 µM): 60.4% and 48.7% and 48.4%; viability, T/C (compound 0.316 µM): 35.9% and 24.7% and 26.5%; viability, T/C (compound 1 µM): 47% and 31.1% and 35.9%; viability, T/C (compound 3.16 µM): 43% and 33.3% and 42.7%; viability, T/C (compound 10 µM): 37.2% and 35.5% and 37.6%; IC50 (curve of compound): 0.184 µM and 0.0526 µM and < 0.0316 µM
CC(C)c1c(-c2ccccc2)nc2c(C#N)c[nH]n2c1=O + Cc1ccccc1N=Nc1ccc(NC(=O)c2ccnn2C)c(C)c1 | > 10 µM | > 10 µM | > 10 µM | > 10 µM | > 10 µM | 79.3% | 85.6% | 95.2% | 98% | 78% | 76.5% | 88.2% | 87.3% | 86.2% | 88.7% | 80% | 84.7% | 91.6% | 79.8% | 88.8% | viability, T/C [21]: 91.4%; viability, T/C [22]: 79.9%; viability, T/C [23]: 58.7%; viability, T/C [24]: 81.7%; viability, T/C [25]: 89.9%; viability, T/C [26]: 85.2%; viability, T/C [27]: 85.7%; viability, T/C [28]: 53.9%; viability, T/C [29]: 62.4%; viability, T/C [30]: 47.5%; viability, T/C [31]: 58.1%; viability, T/C [32]: 59.1%; viability, T/C [33]: 50.4%; viability, T/C [34]: 44.7%; viability, T/C [35]: 57.1%
COc1cc(C2c3cc4c(cc3C(OC3OC5COC(C)OC5C(O)C3O)C3COC(=O)C23)OCO4)cc(OC)c1O (stereo not given) + CC(CO)NC(=O)c1cc(-c2ccc(Cl)cc2)nn(-c2cnn(C)c2)c1=O | 0.727 µM | 0.607 µM | 0.503 µM | 0.269 µM | 0.136 µM | 103% | 98% | 91.1% | 34.1% | 18% | 12.9% | 108% | 109% | 72.4% | 32.6% | 16.2% | 11.3% | 102% | 90.2% | 64.5% | viability, T/C [21]: 29%; viability, T/C [22]: 18.7%; viability, T/C [23]: 14.6%; viability, T/C [24]: 78.8%; viability, T/C [25]: 104%; viability, T/C [26]: 43.2%; viability, T/C [27]: 25.1%; viability, T/C [28]: 16.6%; viability, T/C [29]: 13.5%; viability, T/C [30]: 59%; viability, T/C [31]: 56.4%; viability, T/C [32]: 36%; viability, T/C [33]: 22.3%; viability, T/C [34]: 14.4%; viability, T/C [35]: 14.1%
